Source: patent publication US7402606B2, “Derivatives of 1-(oxoaminoacetyl) pentylcarbamate as cathepsin K inhibitors for the treatment of bone loss” (SmithKline Beecham Corporation, priority 2002, dated 2008)

Target: T1, human cathepsin K (Homo sapiens, UniProt P43235)
T1 construct: The proform of cathepsin K was converted to mature cathepsin K by brief exposure to pH 4; made in house; host or cells: baculovirus; Trichoplusia ni High Five cells (virus raised in Sf-9)
T1 sequence (P43235 115-329): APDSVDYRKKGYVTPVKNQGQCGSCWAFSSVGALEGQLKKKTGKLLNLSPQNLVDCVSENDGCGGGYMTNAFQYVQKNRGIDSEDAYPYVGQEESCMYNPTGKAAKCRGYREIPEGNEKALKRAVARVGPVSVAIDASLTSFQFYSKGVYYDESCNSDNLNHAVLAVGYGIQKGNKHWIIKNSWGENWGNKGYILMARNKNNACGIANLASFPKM
Experiment: Cathepsin K inhibition assay, human recombinant enzyme, fluorogenic substrate Cbz-Phe-Arg-AMC
Format: biochemical
Conditions: Table 1, human cathepsin K; read-out: h Cat K IC50
Protocol: All assays for cathepsin K were carried out with human and rat recombinant enzyme. Assays for cathepsins S ? V were also carried out with human recombinant enzyme. Assays for human cathepsins B, H, and L were carried out with enzyme, purchased from Athens Research and Technology, Inc., prepared from human liver tissue. […] A stock substrate solution of Cbz-Phe-Arg-AMC was prepared at a concentration of 50 mM in dimethyl sulfoxide. This substrate was diluted into the assay for a final substrate concentration of 10 μM in the rat cathepsin K, human cathepsin K, and human cathepsin B assays; a final substrate concentration of 5 μM in the human cathepsin L assay; and a final substrate concentration of 2 μM in the human cathepsin V assay.
All assays contained 10% dimethyl sulfoxide. […] All assays were conducted at 30° C. Product fluorescence (excitation at 360 nm; emission at 440 nm, (except cathepsin H which used excitation at 340 nm; emission at 420 nm)) was monitored with a PerSeptive Biosystems Cytofluor II fluorescence plate reader. Product progress curves were generated over 2.3 h monitoring the formation of 7-amino-4-methylcoumarin product (or β-naphthalamide for cathepsin H).
Human and rat Cathepsin K:
Two liters of Spodoptera frugiperda (Sf-9) cells (ATCC) were grown in Grace's Supplemented medium (Life Technologies) supplemented with 2 g/L glucose, 10% fetal bovine serum (HyClone) and 0.1% pluronic F-68 (Life Technologies). […] The cells continued to grow for 72 h post-infection, before the virus was harvested by centrifugation at 1400×g for 30 min.
One and one-half liters of Trichoplusia ni (T. ni) High Five (™) cells [JRH Biosciences, Woodland, Calif. […] The cells were grown for 24 h at 28° C., 50 RPM, and 50% dissolved oxygen. […] Media were separated from cells at a rate of 1 L/min using the Centritech 100 ™ continuous-flow centrifuge (DuPont) operating at 200×g.
Protein Purification: Media (human and rat) were filtered through a Whatman 3 filter, and then loaded onto a 25 mL. Poros HS II (26 mm×47 mm) cation exchange column equilibrated in 25 mM sodium acetate at pH 5.5 (equilibration buffer). The column was washed until the absorbance reached the baseline value, and then the protein was eluted with a linear gradient from 0-2 M sodium chloride in the equilibration buffer. Column fractions were analyzed by SDS-PAGE, N-terminal sequencing, and mass spectrometry. Fractions containing the proform of cathepsin K were pooled and frozen at −80° C. The proform was concentrated in an Amicon Centriprep 10 and fractionated with a Superdex 75 column (26 mm×600 mm, Pharmacia) equilibrated in 400 mM sodium chloride, 25 mM sodium acetate at pH 5.5.
Cathepsin K Activation: The proform of cathepsin K was converted to mature cathepsin K by brief exposure to pH 4 in the presence of 5 mM L-cysteine. Typically, 5 mM L-cysteine was added to 10 mL of approximately 1 mg/mL procathepsin K. One mL of this solution was diluted ten-fold into 450 mM sodium acetate at pH 4.0 containing 5 mM L-cysteine. This solution was reacted at 23° C. for 2 min before neutralization with 2 mL, 1.8 M sodium acetate at pH 6.0. The neutralized sample was added to the remaining 9 mL of procathepsin K. The mixture was incubated at 4° C. for 2-3 days. The activated cathepsin K was chromatographed on a Poros HS II column as described above.
Potential inhibitors were evaluated using the progress curve method. Assays were carried out in the presence of variable concentrations of test compound. Reactions were initiated by addition of buffered solutions of inhibitor and substrate to enzyme. Data analysis was conducted according to one of two procedures depending on the appearance of the progress curves in the presence of inhibitors. […] Ki values were calculated from IC50 values using equation 2 assuming a competitive model.

| IC50 [nM] | Compound |
| --- | --- |
| 10 to 100 | CCCC[C@H](NC(=O)O[C@@H]1CN(C(=O)N2CCOCC2)CC1(C)C)C(=O)C(=O)N[C@H](C)c1ccccc1 [Example 73, (3S)-4,4-Dimethyl-1-(4-morpholinylcarbonyl)pyrrolidinyl (1S)-1-(oxo{[(1R)-1-phenylethyl]amino}acetyl)pentylcarbamate] |
| 10 to 100 | CCCCC(NC(=O)O[C@@H]1CN(Cc2ccccc2)CC1(C)C)C(=O)C(=O)N[C@H](C)c1ccccc1 (stereo partly drawn) [Example 8, (3S)-1-Benzyl-4,4-dimethylpyrrolidinyl 1-(oxo{[(1R)-1-phenylethyl]amino}acetyl)pentylcarbamate] |
| 10 to 100 | CCCC[C@H](NC(=O)O[C@@H]1CN(C(=O)c2cc3ccccc3[nH]2)CC1(C)C)C(=O)C(=O)N[C@H](C)c1ccccc1 [Example 32, (3S)-1-(1H-Indol-2-ylcarbonyl)-4,4-dimethylpyrrolidinyl (1S)-1-(oxo {[(1R)-1-phenylethyl]amino}acetyl)pentylcarbamate] |
| 1 to 10 | CCCC[C@H](NC(=O)O[C@@H]1CN(C(=O)Nc2ccccc2)CC1(C)C)C(=O)C(=O)N[C@H](C)c1ccccc1 [Example 63, (3S)-1-(Anilinocarbonyl)-4,4-dimethylpyrrolidinyl (1S)-1-(oxo{[(1R)-1-phenylethyl]amino}acetyl)pentylcarbamate] |
| 10 to 100 | CCCCC(NC(=O)O[C@@H]1CN(C(=O)Cc2cccnc2)CC1(C)C)C(=O)C(=O)N[C@H](C)c1ccccc1 (stereo partly drawn) [Example 33, (3S)-4,4-Dimethyl-1-(3-pyridinylacetyl)pyrrolidinyl 1-(oxo{[(1R)-1-phenylethyl]amino}acetyl)pentylcarbamate] |
| 10 to 100 | CCCC[C@H](NC(=O)O[C@@H]1CN(C(=O)c2snnc2C)CC1(C)C)C(=O)C(=O)N[C@H](C)c1ccccc1 [Example 13, (3S)-4,4-Dimethyl-1-[(4-methyl-1,2,3-thiadiazol-5-yl)carbonyl]pyrrolidinyl (1S)-1-(oxo {[(1R)-1-phenylethyl]amino}acetyl)pentylcarbamate] |
| 10 to 100 | CCCC[C@H](NC(=O)O[C@@H]1CN(C(=O)OCCc2ccccc2)CC1(C)C)C(=O)C(=O)N[C@H](C)c1ccccc1 [Example 45, 2-Phenylethyl (4S)-3,3-dimethyl-4-[({[(1S)-1-(oxo {[(1R)-1-phenylethyl]amino}acetyl)pentyl]amino}carbonyl)oxy]-1-pyrrolidinecarboxylate] |
| 10 to 100 | CCCC[C@H](NC(=O)O[C@@H]1CN(C(=O)NC(=O)c2ccccc2)CC1(C)C)C(=O)C(=O)N[C@H](C)c1ccccc1 [Example 75, (3S)-1-[(Benzoylamino)carbonyl]-4,4-dimethylpyrrolidinyl (1S)-1-(oxo{[(1R)-1-phenylethyl]amino}acetyl)pentylcarbamate] |
| 10 to 100 | CCCC[C@H](NC(=O)O[C@@H]1CN(C(=O)OCc2c(C)noc2-c2cc(C)on2)CC1(C)C)C(=O)C(=O)N[C@H](C)c1ccccc1 [Example 50, [3-Methyl-5-(5-methyl-isoxazol-3-yl)-4-isoxazolyl]methyl (4S)-3,3-dimethyl-4-[({[(1S)-1-(oxo{[(1R)-1-phenylethyl]amino}acetyl)pentyl]amino}carbonyl)oxy]-1-pyrrolidinecarboxylate] |
| 10 to 100 | CCCC[C@H](NC(=O)O[C@@H]1CN(C(=O)c2csc(-c3ccncc3)n2)CC1(C)C)C(=O)C(=O)N[C@H](C)c1ccccc1 [Example 26, (3S)-4,4-Dimethyl-1-{[2-(4-pyridinyl)-1,3-thiazol-4-yl]carbonyl}pyrrolidinyl (1S)-1-(oxo{[(1R)-1-phenylethyl]amino}acetyl)pentylcarbamate] |
| 1 to 10 | CCCC[C@H](NC(=O)O[C@@H]1CN(C(=O)c2ccc3ccccc3c2)CC1(C)C)C(=O)C(=O)N[C@H](C)c1ccccc1 [Example 18, (3S)-4,4-Dimethyl-1-(2-naphthoyl)pyrrolidinyl (1S)-1-(oxo {[(1R)-1-phenylethyl]amino}acetyl)pentylcarbamate] |
| 10 to 100 | CCCC[C@H](NC(=O)O[C@@H]1CN(C(=O)Cc2ccc(C(C)(C)C)cc2)CC1(C)C)C(=O)C(=O)N[C@H](C)c1ccccc1 [Example 25, (3S)-1-[(4-tert-Butylphenyl)acetyl]-4,4-dimethylpyrrolidinyl (1S)-1-(oxo{[(1R)-1-phenylethyl]amino}acetyl)pentylcarbamate] |
| 10 to 100 | CCCC[C@H](NC(=O)O[C@@H]1CN(C(=O)O[C@H]2CCOC2)CC1(C)C)C(=O)C(=O)N[C@H](C)c1ccccc1 [Example 43, (3S)-Tetrahydro-3-furanyl (4S)-3,3-dimethyl-4-[({[(1S)-1-(oxo{[(1R)-1-phenylethyl]amino}acetyl)pentyl]amino}carbonyl)oxy]-1-pyrrolidinecarboxylate] |
| 1 to 10 | CCCC[C@H](NC(=O)O[C@@H]1CN(C(=O)OCc2ccc(-c3ccccc3)cc2)CC1(C)C)C(=O)C(=O)N[C@H](C)c1ccccc1 [Example 40, [1,1′-biphenyl]-4-ylmethyl (4S)-3,3-dimethyl-4-[({[(1S)-1-(oxo{[(1R)-1-phenylethyl]amino}acetyl)pentyl]amino}carbonyl)oxy]-1-pyrrolidinecarboxylate] |
| 100 to 1000 | CCCC[C@H](NC(=O)O[C@@H]1CN(C(=O)NS(=O)(=O)c2ccc(C)cc2)CC1(C)C)C(=O)C(=O)N[C@H](C)c1ccccc1 [Example 76, (3S)-4,4-Dimethyl-1-({[(4-methylphenyl)sulfonyl]amino}carbonyl)pyrrolidinyl (1S)-1-(oxo{[(1R)-1-phenylethyl]amino}acetyl)pentylcarbamate] |
| 1 to 10 | CCCC[C@H](NC(=O)O[C@@H]1CN(C(=O)c2ccc3[nH]nnc3c2)CC1(C)C)C(=O)C(=O)N[C@H](C)c1ccccc1 [Example 22, (3S)-1-(1H-1,2,3-Benzotriazol-5-ylcarbonyl)-4,4-dimethylpyrrolidinyl (1S)-1-(oxo{[(1R)-1-phenylethyl]amino}acetyl)pentylcarbamate] |
| 1 to 10 | CCCC[C@H](NC(=O)O[C@@H]1CN(C(=O)c2ccc3[nH]ccc3c2)CC1(C)C)C(=O)C(=O)N[C@H](C)c1ccccc1 [Example 21, (3S)-1-(1H-Indol-5-ylcarbonyl)-4,4-dimethylpyrrolidinyl (1S)-1-(oxo{[(1R)-1-phenylethyl]amino}acetyl)pentylcarbamate] |
| 1 to 10 | CCCC[C@H](NC(=O)O[C@@H]1C(=O)OCC1(C)C)C(=O)C(=O)N[C@H](C)c1ccccc1 [Example 1, (3S)-4,4-dimethyl-2-oxotetrahydro-3-furanyl (1S)-1-(oxo([(1R)-1-phenylethyl]amino}acetyl)pentylcarbamate] |
| 10 to 100 | CCCC[C@H](NC(=O)O[C@@H]1CN(C(=O)Cc2ccccc2Oc2ccccc2)CC1(C)C)C(=O)C(=O)N[C@H](C)c1ccccc1 [Example 31, (3S)-4,4-Dimethyl-1-[(2-phenoxyphenyl)acetyl]pyrrolidinyl (1S)-1-(oxo{[(1R)-1-phenylethyl]amino}acetyl)pentylcarbamate] |

| Compound | IC50 [nM] |
| --- | --- |
| CCCC[C@H](NC(=O)O[C@@H]1CN(C(=O)Oc2ccc3ccccc3c2)CC1(C)C)C(=O)C(=O)N[C@H](C)c1ccccc1 [Example 60, 2-Naphthyl (4S)-3,3-dimethyl-4-[({[(1S)-1-(oxo {[(1R)-1-phenylethyl]amino}acetyl)pentyl]amino}carbonyl)oxy]-1-pyrrolidinecarboxylate] | 10 to 100 |
